# Reference: patent US5854388A, “Angiotensin IV peptides and receptor” (Washington State University Research Foundation, priority 1994, dated 1998)
# “Also recorded” adds a separate entry of the source. Where two headings read alike, the source gives them in different places. Positions of bridges follow the written chain, without caps; N, C: chain ends. Non-standard residues stand in square brackets, D forms with d. Residues, ends and D or L forms follow the SMILES beside them. No end group written: not given here. *: point of attachment. Ileψ(thiazoline)Cys = CC[C@H](C)[C@H](N)C1=N[C@H](C(=O)*)CS1; NMeI = CC[C@H](C)[C@H](NC)C(=O)O; dOrn = NCCC[C@@H](N)C(=O)O; Nle = CCCC[C@H](N)C(=O)O; Orn = NCCC[C@H](N)C(=O)O; GABA = NCCCC(=O)O
# Legend:
# [1] = biological target: T1, AT4 receptor (Bos taurus, UniProt F1N1Q8); assay: 125I-AIV binding and competition, bovine adrenal cortical membranes
# T1 sequence (F1N1Q8 1-1022): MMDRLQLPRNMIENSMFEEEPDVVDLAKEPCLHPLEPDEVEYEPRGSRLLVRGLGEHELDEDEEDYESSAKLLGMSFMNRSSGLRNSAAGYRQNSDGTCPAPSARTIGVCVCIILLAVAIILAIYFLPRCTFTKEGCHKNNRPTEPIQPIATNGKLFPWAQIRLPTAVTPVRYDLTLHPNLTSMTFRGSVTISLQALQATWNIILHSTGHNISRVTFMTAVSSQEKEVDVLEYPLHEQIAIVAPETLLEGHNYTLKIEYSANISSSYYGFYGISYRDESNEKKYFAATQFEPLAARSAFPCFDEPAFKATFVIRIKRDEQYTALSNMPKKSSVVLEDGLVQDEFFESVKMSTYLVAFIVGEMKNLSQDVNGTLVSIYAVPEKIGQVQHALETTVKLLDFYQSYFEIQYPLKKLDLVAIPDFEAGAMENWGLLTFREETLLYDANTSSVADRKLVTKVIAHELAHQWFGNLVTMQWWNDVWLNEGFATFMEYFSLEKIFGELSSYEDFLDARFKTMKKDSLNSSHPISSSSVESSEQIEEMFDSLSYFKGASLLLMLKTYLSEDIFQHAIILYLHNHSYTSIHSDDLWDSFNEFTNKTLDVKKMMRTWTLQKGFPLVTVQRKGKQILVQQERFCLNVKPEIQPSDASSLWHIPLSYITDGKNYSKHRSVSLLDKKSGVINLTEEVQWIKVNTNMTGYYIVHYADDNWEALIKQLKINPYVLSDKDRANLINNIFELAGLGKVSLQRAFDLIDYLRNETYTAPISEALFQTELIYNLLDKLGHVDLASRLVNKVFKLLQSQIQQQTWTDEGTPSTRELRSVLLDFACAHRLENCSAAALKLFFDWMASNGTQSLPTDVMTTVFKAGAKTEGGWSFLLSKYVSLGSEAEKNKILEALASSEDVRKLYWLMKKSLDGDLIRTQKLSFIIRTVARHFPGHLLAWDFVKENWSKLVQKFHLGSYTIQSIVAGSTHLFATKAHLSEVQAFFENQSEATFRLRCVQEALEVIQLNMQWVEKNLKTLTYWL
# [2] = biological target: T1, AT4 receptor; assay: 125I-AIV binding and competition, solubilized bovine adrenal cortical receptor
# [3] = biological target: T1, AT4 receptor; assay: 125I-AIV binding and competition, coronary venular endothelial cell (CVEC) membranes; design: species or system bovine
# [4] = arterial and venous blood in man; cited from earlier work
# [5] = tested on: rat kidney; assay: Renal cortical blood flow (laser doppler) and arterial pressure after infusion into the renal artery; type: in vivo
# [6] = Metabolism by rat kidney membranes / homogenates
# [7] = biological target: T2, AT1 receptor (AII receptor) (Bos taurus, UniProt P25104); type: binding, bovine; settings: competition
# T2 construct: from tissue; host or cells: bovine adrenal cortex membranes
# T2 sequence (P25104 1-359): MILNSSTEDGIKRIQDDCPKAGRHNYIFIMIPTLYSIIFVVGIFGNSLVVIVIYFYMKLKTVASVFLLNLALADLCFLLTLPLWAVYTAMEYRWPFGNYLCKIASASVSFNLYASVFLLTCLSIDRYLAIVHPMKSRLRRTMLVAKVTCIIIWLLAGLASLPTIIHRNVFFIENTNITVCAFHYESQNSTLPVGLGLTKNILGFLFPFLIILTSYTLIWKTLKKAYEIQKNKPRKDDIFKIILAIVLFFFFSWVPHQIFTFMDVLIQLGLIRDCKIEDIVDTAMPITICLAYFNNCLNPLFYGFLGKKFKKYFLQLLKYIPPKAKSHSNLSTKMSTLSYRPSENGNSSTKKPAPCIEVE
# [8] = read-out: 125I-AIV Binding (Ki)
molecule,measurement,setting,value
"CC[C@H](C)[C@H](N)C1=N[C@H](C(=O)N[C@@H](CC(C)C)C(=O)N[C@H](CCC(=O)O)C(=O)N[C@H](C(=O)N[C@H]2CCCCNC(=O)[C@H](CC(N)=O)NC(=O)[C@@H](CC(=O)O)NC(=O)[C@H](Cc3cnc[nH]3)NC(=O)[C@@H](Cc3ccccc3)NC(=O)[C@H]([C@@H](C)CC)NC(=O)[C@@H](CCCN)NC2=O)[C@@H](C)CC)CS1 [Bacitracin, ICLEIKOIFHDD, reference compound] ({Ileψ(thiazoline)Cys}-L[dE]IK[dOrn]I[dF]H[dD]N; lactam 4-C)",effect on binding of AIV ligand to the AT4 receptor,[1],inhibited
"CC[C@H](C)[C@H](NC)C(=O)N[C@@H](Cc1ccc(O)cc1)C(=O)N[C@H](C(=O)N[C@@H](Cc1c[nH]cn1)C(=O)N1CCC[C@H]1C(=O)N[C@@H](Cc1ccccc1)C(=O)O)[C@@H](C)CC [CH3 -I1 YIHPF, N-methyl-Ile1 YIHPF] (H-[NMeI]YIHPF-OH)",decrease in affinity relative to I1YIHPF,[1]; N-methylation of Ile1,67 fold
V[D-Y2 ]IHPF [D-Y2 AIV],binding affinity for the AT4 receptor (in words),[1],very low affinity; also recorded: low binding affinity
same,Ki,[2]; read-out: Ki,416 nM
VYIHPI [VYIHPI6],binding affinity for the AT4 receptor (in words),[1],higher affinity than the parent VYIHPF; also recorded: higher binding affinity for the AT4 receptor than AIV
"CC[C@H](C)[C@H](NC(=O)[C@@H](N)Cc1ccc(O)cc1)C(=O)N[C@@H](Cc1cnc[nH]1)C(=O)N1CCC[C@H]1C(=O)N[C@@H](Cc1ccccc1)C(=O)O [AII(4-8), YIHPF] (H-YIHPF-OH)",Ki,[1]; [8],> 1000 nM
same,Ki,[2],> 1000 nM
same,Ki,[3]; competition of 0.5 nM 125I-AIV,253 ± 89.1 nM
same,half-lives,[4],2.4 min
GABA-YIHPF ([GABA]YIHPF),decrease in binding affinity relative to AIV,[1],250 fold
PYIHPF,decrease in binding affinity relative to AIV,[1],8 fold
"^+ H3 N-Val(CH2 NH)Tyr-Val(CH2 NH)-His-Pro-Phe-COO^- (H-VYVHPF-OH; also: reduced CH2-NH bonds: Val1-Tyr2, Val3-His4) [Val1 Val3 AIV]",binding affinity for the AT4 receptor (in words),[1],affinity equal to or better than VYIHPF; also recorded: equal or better affinity than AIV
same,Ki,[2]; read-out: Ki,1.29 nM
same,agonist / antagonist activity (in words),"[5]; rat, in vivo",potent antagonist of AT4 receptor activity
same,effect of preinfusion on blood flow response to another ligand,"[5]; rat, in vivo",completely blocks Lys^1 AIV-induced increases in blood flow
same,effect on arterial blood pressure (in words),"[5]; rat, in vivo",did not alter blood pressure or renal blood flow
same,effect on renal blood flow (in words),"[5]; rat, in vivo",did not alter blood pressure or renal blood flow
same,stability on exposure to rat kidney (in words),[6],totally resistant to enzymatic degradation
same,stability on exposure to rat kidney (in words),[6]; listed as divalinal AIV,enhanced metabolic stability
same,remaining intact,"[6]; rat kidney membranes, 4 hr, room temperature",100%
VF2 IHPF (VFIHPF),binding affinity for the AT4 receptor (in words),[1],very low affinity
V1 Y2 I3 H4 P5 F6 H7 (VYIHPFH) [AI(3-9)],binding affinity for the AT4 receptor (in words),[1],did not alter binding significantly
same,binding affinity for the AT4 receptor (in words),[1]; listed as V1 Y2 I3 H4 P5 F6 H7,does not alter binding
DYIHPF,Kd,[1],> 1000 nM
same,binding affinity for the AT4 receptor (in words),[1],virtually no affinity
IYIHPF [I1 YIHPF],binding affinity for the AT4 receptor (in words),[1],only a slight change (an increase) in binding affinity; also recorded: nearly the same binding affinity
"CC[C@H](C)[C@H](NC(=O)[C@@H](N)Cc1ccc(O)cc1)C(=O)N[C@@H](Cc1c[nH]cn1)C(=O)N1CCC[C@H]1C(=O)N[C@@H](Cc1ccccc1)C(=O)O [AII(4-8), YIHPF] (H-YIHPF-OH; N-terminus and C-terminus assumed)",decrease in binding affinity relative to AIV,[1],1000 fold
NleYIHPF ([Nle]YIHPF),maximum increase in renal blood flow,[5]; 0.05 pmole,19%
same,maximum increase in renal blood flow,[5]; 0.1 pmole,19%
same,maximum increase in renal blood flow,[5]; 10 pmole,21%
same,increase in renal blood flow,[5]; 100 pmole,30%
same,effect on arterial blood pressure (in words),"[5]; rat, in vivo",no effect on mean arterial pressure
same,agonist / antagonist activity (in words),"[5]; renal blood flow response compared to AIV, listed as Nle1 -AIV",only a partial agonist
same,agonist / antagonist activity (in words),"[5]; renal blood flow response compared to AIV, listed as Nle1 YIHPF",partial agonist
VYIH,decrease in binding relative to VYIHP,[1],21 fold
same,Ki,[1]; read-out: Ki,> 500 nM
VYIHP [des Phe6 -AIV],binding affinity for the AT4 receptor (in words),[1],did not alter binding significantly
same,binding affinity for the AT4 receptor (in words),[1]; listed as V1 Y2 I3 H4 P5,does not alter binding significantly
same,binding to solubilized AT4 receptor (in words),[2]; listed as VYIHP,retained AT4 receptor binding activity
same,binding to solubilized AT4 receptor (in words),[2]; listed as desPhe6 -AIV,still retained AIV binding activity
same,increase in Ki (decrease in affinity) compared with AIV,[3],7 fold
same,Ki,"[3]; competition of 0.5 nM 125I-AIV, read-out: Ki",7.3 ± 1.2 nM
OrnYIHPF ([Orn]YIHPF),binding affinity for the AT4 receptor (in words),[1],higher binding affinity than AIV
KYIHPI [KYIHPI6],binding affinity for the AT4 receptor (in words),[1],lower affinity than the parent KYIHPF6
same,binding affinity for the AT4 receptor (in words),[1]; listed as Lys1 Ile6 -AIV,lower affinity than Lys1 -AIV
F1 YIHPF (FYIHPF),decrease in binding affinity relative to AIV,[1],4 fold
"VPIHYF [Phe2 Tyr6 AIV, positions of the Phe and Tyr residues in AIV reversed]",binding affinity for the AT4 receptor (in words),[1],very low binding affinity
V1 Y2 I3 H4 P5 F6 H7 L8 (VYIHPFHL) [AI(3-10)],decrease in binding affinity relative to AIV,[1],2 fold
"CCCCc1nc(Cl)c(CO)n1Cc1ccc(-c2ccccc2-c2nn[nH]n2)cc1 [DuP 753, reference compound]",Ki,[1]; [8],> 100000 nM
same,Ki,[7],31 nM
same,Ki,[2],> 100000 nM
same,Ki,[3]; unit inferred,> 100000 nM
